From publication PMC10600247, “Impact of C- and N-terminal protection on the stability, metal chelation and antimicrobial properties of calcitermin” (Scientific Reports, 2023)
Residues, ends and D or L forms follow the SMILES beside them.

Tests used:
[1] = system: C. albicans (ATCC 10231); experiment: In vitro antifungal CFU assay; type: cell-based, Candida albicans; settings: pH 5.4; for mean CFU number ± S.D.: per 0.1 mL
Procedure, shortened: (§1)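 Peptides (final 0.128, 0.064, 0.032 mg/mL), alone or with ZnCl2 or CuCl2 at M:L 0.9:1, were incubated with 10^3 CFU/well in PBS pH 5.4 plus 1.5% TSB at 37 °C with slow rocking for 3 and 24 h. Aliquots were plated on TSA and CFU counted after 24 h; triplicate.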

[2] = system: S. aureus (ATCC 25293); experiment: In vitro anti-S. aureus CFU assay; type: cell-based, Staphylococcus aureus; settings: 3 h, pH 5.4; for mean CFU number ± S.D.: per 0.1 mL
Procedure, shortened: as §1

[3] = in vitro; settings: human, pH 7.4
Procedure: Each peptide (C = 1·10^–4 M) and metal complex (metal:ligand ratio 1:1) was incubated in a sample containing 1 ml of human plasma (obtained as a pool of 40 individuals from the University Hospital of Ferrara) and 1 ml of ammonium acetate buffer (pH 7.4) at 37 °C. L-phenylalaninol is added as internal standard. At regular time intervals, 200 μl aliquots were taken and enzymatic reaction was blocked by adding 300 μl of HClO4 0.5 M. The sample was then centrifugated for 6 min at 14,000 × g. The supernatant was then filtered and analysed by HPLC. The analytical column was an Agilent Poroshell 120 SB-C18 (4.6 × 100 mm, 2.7 μm, pore size 120 Å). Flow rate = 0.5 ml/min, mobile phase H2O + 0.1% v/v TFA, linear gradient from 0 to 60% of acetonitrile + 0.1% v/v TFA over 30 min for the elution of peptides, temperature 25 °C, detection wavelength 210 nm. […] Informed consent was obtained from all subjects and/or their legal guardian(s) prior to the donation of blood samples. All experimental protocols were approved by the National Research and Research Transversal Processes boards at University of Ferrara. All methods were carried out in accordance with relevant guidelines and regulations.

[4] = peptide 0.032 mg/mL + CuCl2 (0.9:1), 3 h
[5] = peptide 0.032 mg/mL + CuCl2 (0.9:1), 24 h
[6] = peptide 0.032 mg/mL + ZnCl2 (0.9:1), 3 h
[7] = peptide 0.032 mg/mL + ZnCl2 (0.9:1), 24 h
[8] = peptide 0.064 mg/mL + CuCl2 (0.9:1), 3 h
[9] = peptide 0.064 mg/mL + CuCl2 (0.9:1), 24 h
[10] = peptide 0.064 mg/mL + ZnCl2 (0.9:1), 3 h
[11] = peptide 0.064 mg/mL + ZnCl2 (0.9:1), 24 h
[12] = peptide 0.128 mg/mL + CuCl2 (0.9:1), 3 h
[13] = peptide 0.128 mg/mL + CuCl2 (0.9:1), 24 h
[14] = peptide 0.128 mg/mL + ZnCl2 (0.9:1), 3 h
[15] = peptide 0.128 mg/mL + ZnCl2 (0.9:1), 24 h
[16] = peptide alone 0.032 mg/mL, 24 h
[17] = peptide alone 0.064 mg/mL, 24 h
[18] = peptide alone 0.128 mg/mL, 24 h
[19] = peptide 0.032 mg/mL + CuCl2 (0.9:1)
[20] = peptide 0.032 mg/mL + ZnCl2 (0.9:1)
[21] = peptide 0.064 mg/mL + CuCl2 (0.9:1)
[22] = peptide 0.064 mg/mL + ZnCl2 (0.9:1)
[23] = peptide 0.128 mg/mL + CuCl2 (0.9:1)
[24] = peptide 0.128 mg/mL + ZnCl2 (0.9:1)

CC[C@H](C)[C@H](NC(=O)[C@H](C)NC(=O)[C@@H](NC(C)=O)C(C)C)C(=O)N[C@@H](C)C(=O)N[C@@H](CC(C)C)C(=O)N[C@@H](CCCCN)C(=O)N[C@@H](C)C(=O)N[C@@H](C)C(=O)N[C@@H](Cc1c[nH]cn1)C(=O)N[C@@H](Cc1ccc(O)cc1)C(=O)N[C@@H](Cc1c[nH]cn1)C(=O)N[C@H](C(=O)N[C@@H](Cc1c[nH]cn1)C(=O)N[C@@H](CCCCN)C(=O)N[C@@H](CCC(=O)O)C(N)=O)[C@@H](C)O [L2, Ac-VAIALKAAHYHTHKE-NH2] (Ac-VAIALKAAHYHTHKE-NH2)
CFU decrease/increase with respect to untreated controls [1, 4]: +9.3% | mean CFU number ± S.D. [1, 4]: 153 ± 26 CFU | CFU decrease/increase with respect to untreated controls [1, 5]: +16% | mean CFU number ± S.D. [1, 5]: 1,908 ± 83 CFU | CFU decrease/increase with respect to untreated controls [1, 6]: -7.8% | mean CFU number ± S.D. [1, 6]: 129 ± 17 CFU | CFU decrease/increase with respect to untreated controls [1, 7]: +14% | mean CFU number ± S.D. [1, 7]: 1,873 ± 83 CFU | CFU decrease/increase with respect to untreated controls [1, 8]: +29% | mean CFU number ± S.D. [1, 8]: 180 ± 81 CFU | mean CFU number ± S.D. [1, 9]: 1,360 ± 140 CFU | CFU decrease/increase with respect to untreated controls [1, 10]: -44% | mean CFU number ± S.D. [1, 10]: 79 ± 18 CFU | mean CFU number ± S.D. [1, 11]: 881 ± 99 CFU | CFU decrease/increase with respect to untreated controls [1, 12]: -7% | mean CFU number ± S.D. [1, 12]: 130 ± 29 CFU | mean CFU number ± S.D. [1, 13]: 1,256 ± 129 CFU | mean CFU number ± S.D. [1, 14]: 36 ± 15 CFU | mean CFU number ± S.D. [1, 15]: 50 ± 29 CFU | CFU decrease/increase with respect to untreated controls ([1]; peptide alone 0.032 mg/mL, 3 h): +51% | mean CFU number ± S.D. ([1]; peptide alone 0.032 mg/mL, 3 h): 211 ± 25 CFU | CFU decrease/increase with respect to untreated controls [1, 16]: -5% | mean CFU number ± S.D. [1, 16]: 1,563 ± 72 CFU | CFU decrease/increase with respect to untreated controls ([1]; peptide alone 0.064 mg/mL, 3 h): +20% | mean CFU number ± S.D. ([1]; peptide alone 0.064 mg/mL, 3 h): 168 ± 14 CFU | CFU decrease/increase with respect to untreated controls [1, 17]: -10% | mean CFU number ± S.D. [1, 17]: 1,480 ± 198 CFU | CFU decrease/increase with respect to untreated controls ([1]; peptide alone 0.128 mg/mL, 3 h): +5.7% | mean CFU number ± S.D. ([1]; peptide alone 0.128 mg/mL, 3 h): 148 ± 24 CFU | CFU decrease/increase with respect to untreated controls [1, 18]: +6% | mean CFU number ± S.D. [1, 18]: 1,732 ± 249 CFU | CFU decrease/increase with respect to untreated controls [2, 19]: -17% | mean CFU number ± S.D. [2, 19]: 129± 41 CFU | CFU decrease/increase with respect to untreated controls [2, 20]: 0% | mean CFU number ± S.D. [2, 20]: 177 ± 11 CFU | CFU decrease/increase with respect to untreated controls [2, 21]: -18% | mean CFU number ± S.D. [2, 21]: 127 ± 30 CFU | CFU decrease/increase with respect to untreated controls [2, 22]: -17% | mean CFU number ± S.D. [2, 22]: 147 ± 16 CFU | CFU decrease/increase with respect to untreated controls [2, 23]: +6% | mean CFU number ± S.D. [2, 23]: 194 ± 4 CFU | mean CFU number ± S.D. [2, 24]: 82 ± 16 CFU | CFU decrease/increase with respect to untreated controls ([2]; peptide alone 0.032 mg/mL): -12% | mean CFU number ± S.D. ([2]; peptide alone 0.032 mg/mL): 157 ± 35 CFU | CFU decrease/increase with respect to untreated controls ([2]; peptide alone 0.064 mg/mL): +14% | mean CFU number ± S.D. ([2]; peptide alone 0.064 mg/mL): 201 ± 40 CFU | CFU decrease/increase with respect to untreated controls ([2]; peptide alone 0.128 mg/mL): +21% | mean CFU number ± S.D. ([2]; peptide alone 0.128 mg/mL): 213 ± 23 CFU | half-life [3]: ~68 min

CC[C@H](C)[C@H](NC(=O)[C@H](C)NC(=O)[C@@H](N)C(C)C)C(=O)N[C@@H](C)C(=O)N[C@@H](CC(C)C)C(=O)N[C@@H](CCCCN)C(=O)N[C@@H](C)C(=O)N[C@@H](C)C(=O)N[C@@H](Cc1c[nH]cn1)C(=O)N[C@@H](Cc1ccc(O)cc1)C(=O)N[C@@H](Cc1c[nH]cn1)C(=O)N[C@H](C(=O)N[C@@H](Cc1c[nH]cn1)C(=O)N[C@@H](CCCCN)C(=O)N[C@@H](CCC(=O)O)C(N)=O)[C@@H](C)O [L3, VAIALKAAHYHTHKE-NH2] (H-VAIALKAAHYHTHKE-NH2)
CFU decrease/increase with respect to untreated controls [1, 4]: +23% | mean CFU number ± S.D. [1, 4]: 187 ± 20 CFU | CFU decrease/increase with respect to untreated controls [1, 5]: -19% | mean CFU number ± S.D. [1, 5]: 2,042 ± 137 CFU | CFU decrease/increase with respect to untreated controls [1, 6]: +6% | mean CFU number ± S.D. [1, 6]: 160 ± 25 CFU | CFU decrease/increase with respect to untreated controls [1, 7]: +2% | mean CFU number ± S.D. [1, 7]: 2,557 ± 251 CFU | CFU decrease/increase with respect to untreated controls [1, 8]: +59% | mean CFU number ± S.D. [1, 8]: 241 ± 23 CFU | CFU decrease/increase with respect to untreated controls [1, 9]: -8% | mean CFU number ± S.D. [1, 9]: 2,315 ± 546 CFU | CFU decrease/increase with respect to untreated controls [1, 10]: -2% | mean CFU number ± S.D. [1, 10]: 148 ± 22 CFU | mean CFU number ± S.D. [1, 11]: 1,596 ± 145 CFU | CFU decrease/increase with respect to untreated controls [1, 12]: +53% | mean CFU number ± S.D. [1, 12]: 230 ± 3 CFU | CFU decrease/increase with respect to untreated controls [1, 13]: -33% | mean CFU number ± S.D. [1, 13]: 1,687 ± 111 CFU | mean CFU number ± S.D. [1, 14]: 71 ± 17 CFU | mean CFU number ± S.D. [1, 15]: 605 ± 97 CFU | CFU decrease/increase with respect to untreated controls ([1]; peptide alone 0.032 mg/mL, 3 h): +25% | mean CFU number ± S.D. ([1]; peptide alone 0.032 mg/mL, 3 h): 189 ± 23 CFU | CFU decrease/increase with respect to untreated controls [1, 16]: -10% | mean CFU number ± S.D. [1, 16]: 2,263 ± 251 CFU | CFU decrease/increase with respect to untreated controls ([1]; peptide alone 0.064 mg/mL, 3 h): +20% | mean CFU number ± S.D. ([1]; peptide alone 0.064 mg/mL, 3 h): 182 ± 27 CFU | CFU decrease/increase with respect to untreated controls [1, 17]: -12% | mean CFU number ± S.D. [1, 17]: 2,204 ± 170 CFU | CFU decrease/increase with respect to untreated controls ([1]; peptide alone 0.128 mg/mL, 3 h): -5% | mean CFU number ± S.D. ([1]; peptide alone 0.128 mg/mL, 3 h): 144 ± 11 CFU | CFU decrease/increase with respect to untreated controls [1, 18]: -14% | mean CFU number ± S.D. [1, 18]: 2,164 ± 101 CFU | CFU decrease/increase with respect to untreated controls [2, 19]: +6% | mean CFU number ± S.D. [2, 19]: 187 ± 13 CFU | CFU decrease/increase with respect to untreated controls [2, 20]: -6% | mean CFU number ± S.D. [2, 20]: 167 ± 22 CFU | CFU decrease/increase with respect to untreated controls [2, 21]: -2% | mean CFU number ± S.D. [2, 21]: 173 ± 69 CFU | CFU decrease/increase with respect to untreated controls [2, 22]: -50% | mean CFU number ± S.D. [2, 22]: 88 ± 18 CFU | mean CFU number ± S.D. [2, 23]: 94 ± 2 CFU | mean CFU number ± S.D. [2, 24]: 48 ± 8 CFU | CFU decrease/increase with respect to untreated controls ([2]; peptide alone 0.032 mg/mL): -28% | mean CFU number ± S.D. ([2]; peptide alone 0.032 mg/mL): 127 ± 64 CFU | mean CFU number ± S.D. ([2]; peptide alone 0.064 mg/mL): 101 ± 30 CFU | mean CFU number ± S.D. ([2]; peptide alone 0.128 mg/mL): 91 ± 12 CFU | half-life [3]: ~20 min
